Here are results for four compounds from patent US20210353701A1, “ULTRAVIOLET LIGHT-INDUCED INFLAMMATION SUPPRESSING AGENT COMPRISING ALTERNATIVE AUTOPHAGY INDUCING AGENT” (Shiseido Company, Ltd., priority 2018, published 2021).

Series [1] relates to Normal human epidermal keratinocytes (NHEK). As to the kind of experiment: IL-1β production after ultraviolet irradiation in NHEK treated with autophagy inhibitor or inducing agent (ELISA). The format is cell-based. As to conditions: 3-MA 1 mM; UV 290 to 315 nm, 20 mJ/cm^2; culture supernatant after 48 hours. How it is done:
Normal human epidermal keratinocytes (NHEK) (Kurabo Industries, Ltd.) were seeded in a 6-well plate and cultured to subconfluence using epidermal keratinocyte growth medium (EpiLife-KG2; Gibco Co). The medium was then exchanged with medium containing 3-methyladenine (3-MA) (by R&D Co., final concentration: 1 mM), as a known autophagy inhibitor and medium containing rapamycin (by Enzo Life Science, final concentration: 0.5 μM) as a known autophagy inducing agent, and culturing was continued for 3 hours. After culturing, the medium was discarded, PBS was added and irradiation was carried out with ultraviolet rays (290 to 315 nm) at a radiation intensity of 20 mJ/cm^2. Following ultraviolet irradiation, culturing was continued under the medium conditions described above including 3-MA or rapamycin, and after 48 hours the culture supernatant of each was obtained. The IL-1β concentration of the obtained culture supernatant was evaluated using a Quantikine Human IL-1β ELISA Kit (R&D co.) (FIGS. 1A and B). Statistical significance testing was conducted using Student's or Welch's t test.

In series [2] the test system is Atg5. As to the kind of experiment: siRNA knockdown efficiency by RT-PCR, Atg5. The format is cell-based, human. As to conditions: siRNA 200 nM in NHEK cells, GAPDH internal standard. The procedure:
(§1) An Amaxa Human Keratinocyte Nucleofector Kit (Lonza) was used to transfect NHEK cells (8.0×10^5 cells) with siRNA to a final concentration of 200 nM. The knockdown efficiency was confirmed by the mRNA expression level of Atg5, Atg7 and Beclin1 using an RT-PCR method (FIGS. 2A, B and C). The RT-PCR primers used were primers by Sigma-Aldrich, and GAPDH (Sigma-Aldrich) was used as an internal standard for standardization of the expression levels.

For series [3], the system named is NHEK cells. The series can be described thus: IL-1β production after ultraviolet irradiation in siRNA-treated NHEK cells (ELISA). It counts as cell-based, human. As to conditions: siRNA 200 nM; UV 290 to 315 nm, 15 mJ/cm^2; culture supernatant after 48 hours. How it is done: as §1
The siRNA-treated NHEK cells were seeded into a 6-well plate and cultured for 24 hours. The medium was then discarded, PBS was exchanged, and irradiation was carried out with ultraviolet rays (290 to 315 nm) at a radiation intensity of 15 mJ/cm^2. Following ultraviolet irradiation, the medium was again exchanged and culturing was continued for 48 hours to obtain a culture supernatant. The IL-1β concentration of the obtained culture supernatant was evaluated using a Quantikine Human IL-1β ELISA Kit (R&D co.) (FIGS. 3A, B and C). Student's t-test was used as the statistical significance test.
On the technique in general: An ELISA detects its analyte on a solid surface through an enzyme-linked reagent.

Series [4] concerns Atg7. The series can be described thus: siRNA knockdown efficiency by RT-PCR, Atg7. The format is cell-based, human. To be noted: siRNA 200 nM in NHEK cells, GAPDH internal standard. The procedure: as §1
Series [5] concerns Beclin1. As to the kind of experiment: siRNA knockdown efficiency by RT-PCR, Beclin1. It counts as cell-based, human. As to conditions: siRNA 200 nM in NHEK cells, GAPDH internal standard. How it is done: as §1

With `Cn1cnc(N)c2ncnc1-2` [3-methyladenine], the “IL-1β concentration after ultraviolet irradiation, increase” value in series [1] was “approximately 3 fold”.

In the case of “Atg5-targeted siRNA: siRNA for Atg5 purchased from Invitrogen, SEQ ID NO: 1 and 2 (chain 1 GGUUUGGACGAAUUCCAACUUGUUU; chain 2 AAACAAGUUGGAAUUCGUCCAAACC; listed as RNA, chemistry not given here)”, the “Atg5 expression (mRNA)” value in series [2] is on record as “suppressed”. For the same compound, the “IL-1β production induced by ultraviolet ray” value (from here on “IL-1β production induced”) in series [3] is on record as “unchanged”. Turning to “Atg7-targeted siRNA: siRNA for Atg7 purchased from Invitrogen, SEQ ID NO: 3 and 4 (chain 1 GCCGUCAUUGCUGCAAGCAAGAGAA; chain 2 UUCUCUUGCUUGCAGCAAUGACGGC; listed as RNA, chemistry not given here)”, the “Atg7 expression (mRNA)” value in series [4] is on record as “suppressed”. Besides, the “IL-1β production induced” value in series [3] is given as “unchanged”. As to “Beclin1-targeted siRNA: siRNA for Beclin1 purchased from Invitrogen, SEQ ID NO: 5 and 6 (chain 1 CCAAUAAGAUGGGUCUGAAAUUUCA; chain 2 UGAAAUUUCAGACCCAUCUUAUUGG; listed as RNA, chemistry not given here)”, the “IL-1β production induced” value in series [3] is reported as “significantly increased”. Besides, in series [5], the “Beclin1 expression (mRNA)” value is “suppressed”.
